Experimental data: US20080114038A1 (priority 2004, published 2008)

How the values were obtained:
COX-1 = COX-1 (Homo sapiens, UniProt P23219); settings: read-out: concentration responsible for the inhibition of 50% of the production of TXA2 (IC50); human whole blood without anticoagulant, 37° C., 1 hour, serum
[1] = test system: edema of the paw induced by carragenine; assay: Edema of rat paws induced by carragenine; type: in vivo, male rats of the Wistar type; settings: i.p. 30 minutes before carragenine 1%; molar dose equivalent to diclofenac; paw volume up to 4 hours
Protocol: For the performance of this one test, animals, such as, for example, male rats of the Wistar type were used, which weighed between 150-180 g. These rats were acquired from CEMIB/UNICAMP.
Five rats were treated with the diclofenac, five rats with the modified diclofenac and five rats with the DMSO vehicle.
After a period of approximately 30 minutes, the animals were inoculated with an intraplantary injection of approximately 0.1 mL of a solution of carragenine 1% in saline solution, at the right hind paw, while the contralateral paw received the same volume but only of the saline solution.
The quantification of the volume of the paw was performed by means of an adequate instrument, such as, for example a pletismometer. The volume of the paws was checked before the administration of the carragenine (T0) and after 30 minutes, 1, 2, 3 and 4 hours. The T0 value was subtracted from the other values arrived at.

Sequence of COX-1 (P23219 24-599): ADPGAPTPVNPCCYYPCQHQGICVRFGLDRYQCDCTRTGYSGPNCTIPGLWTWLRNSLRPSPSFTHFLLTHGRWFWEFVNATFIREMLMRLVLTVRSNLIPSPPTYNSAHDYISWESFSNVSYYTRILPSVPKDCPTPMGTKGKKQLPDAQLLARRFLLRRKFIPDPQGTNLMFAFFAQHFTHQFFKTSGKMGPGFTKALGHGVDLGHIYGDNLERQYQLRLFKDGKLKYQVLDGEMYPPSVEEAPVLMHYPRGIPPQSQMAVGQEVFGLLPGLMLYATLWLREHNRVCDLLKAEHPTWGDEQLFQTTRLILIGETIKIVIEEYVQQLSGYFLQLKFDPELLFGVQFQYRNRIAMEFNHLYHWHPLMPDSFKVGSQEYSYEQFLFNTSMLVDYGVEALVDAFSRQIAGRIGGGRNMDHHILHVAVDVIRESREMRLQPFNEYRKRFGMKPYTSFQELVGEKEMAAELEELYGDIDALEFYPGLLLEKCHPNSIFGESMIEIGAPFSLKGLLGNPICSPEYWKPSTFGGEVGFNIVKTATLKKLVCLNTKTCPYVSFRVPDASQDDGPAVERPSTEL

O=C(Cc1ccccc1Nc1c(Cl)cccc1Cl)OCc1ccc2c(c1)no[n+]2[O-] [modified diclofenac, [2-(2,6-dichloro-phenylamino)-phenyl]-acetic acid 1-oxy-benzo[1,2,5]oxadiazol-5-ylmethyl ester]
IC50 (COX-1): ~40.4 µM | inhibition of the edema of the paw induced by carragenine (paw volume, FIG. 1) [1]: capable of inhibiting the edema of the paw induced by carragenine in the same way that the standard diclofenac
